Assay results as given in US20130178835A1, “IDENTIFYING SYNTHETIC LIGANDS THAT BIND T-CELLS FROM PATIENTS HAVING AN AUTOIMMUNE DISEASE” (The Board of Regents of the University of Texas System, priority 2009, published 2013).
Entries after “also recorded” stand apart in the source; their conditions may differ. Non-standard residues stand in square brackets, D forms with d. Residues, ends and D or L forms follow the SMILES beside them. Nrpe = C[C@@H](NCC(=O)O)c1ccccc1; NFurfurylGly = O=C(O)CNCc1ccco1; Nleu = CC(C)CNCC(=O)O; Nlys = NCCCCNCC(=O)O

Key:
[1] = test system: CD4+ T cells from MBP Acl-11 TCR transgenic mice; assay: Binding of quantum dot-labeled T cells to peptoid resynthesized on beads; design: species or system mouse; conditions: Tentagel beads, red quantum dot-labeled T cells
Source text: Approximately 300,000 beads were swelled in DMF, washed with PBS, and equilibrated in complete RPMI 1640 media containing 3% BSA. CD4+ T cells isolated from either EAE or wild-type mice were resuspended in RPMI and labeled using quantum dots (Invitrogen) according to manufacturer's instructions. CD4+ T cells from EAE mice were labeled with Qtracker 655 (red) and CD4+ T cells from wild-type mice were labeled with Qtracker 565 (green). Labeled cells were mixed in a 1:1 ratio with a total of approximately 10×10^6 of each cell type. The cells were then incubated with the peptoid bead library overnight in a 37° C. incubator with 5% CO2 and gentle shaking. The beads were gently washed 2 times with RPMI media and were then visualized under a fluorescent microscope (Olympus BX-51) with excitation 340-380 nm using a DAPI filter (100×total magnification). Beads binding only to red labeled cells were selected manually using a 20 μl pipette. The “hit” beads were then washed, boiled with 1% SDS for 30 minutes and subjected to automated Edman sequencing.
(§1) To determine whether AG12A was binding to the autoreactive TCR, the inventors took advantage of the existence of transgenic mice, in which the vast majority of CD4+ T cells express the MBP Acl-11 specific TCR (Vα2.3/Vβ8.2 TCR) (Goverman et al., 1993). CD4+ T cells were isolated from these mice and tested for binding to AG12A. […]

[2] = test system: CD4+ T cells from B10.PL wild-type control mice; assay: as above; design: species or system mouse; conditions: Tentagel beads, red quantum dot-labeled T cells
Method: Approximately 300,000 beads were swelled in DMF, washed with PBS, and equilibrated in complete RPMI 1640 media containing 3% BSA. CD4+ T cells isolated from either EAE or wild-type mice were resuspended in RPMI and labeled using quantum dots (Invitrogen) according to manufacturer's instructions. […] Labeled cells were mixed in a 1:1 ratio with a total of approximately 10×10^6 of each cell type. The cells were then incubated with the peptoid bead library overnight in a 37° C. incubator with 5% CO2 and gentle shaking. The beads were gently washed 2 times with RPMI media and were then visualized under a fluorescent microscope (Olympus BX-51) with excitation 340-380 nm using a DAPI filter (100×total magnification). Beads binding only to red labeled cells were selected manually using a 20 μl pipette. The “hit” beads were then washed, boiled with 1% SDS for 30 minutes and subjected to automated Edman sequencing.
as §1, with “AG12A. This was done in several ways. First, AG12A was resynthesized on beads, as was a control peptoid not selected as a T cell ligand (FIG. 6).” for “AG12A.”

[3] = test system: Vα2.3/Vβ8.2 MBP Acl-11 TCR transgenic T cells; assay: Flow cytometry binding assay (periodate cross-linking, streptavidin-APC MFI); design: species or system mouse; conditions: biotin-DOPA-AG12A 1-500 μM, cross-linked with periodate; MFI fitted with Graphpad Prism; estimated
Method: Following isolation of CD4+ T cells from TCR transgenic mice and WT controls, cells were washed and resuspended in 0.1% PBS/BSA (FACS buffer). The cells were incubated with increasing concentrations (1 μM, 10 μM, 100 μM, 250 μM, or 500 μM) of either the biotin-DOPA-AG12A peptoid or a biotin-DOPA-control peptoid and incubated for 30 min at 37° C. 5 mM sodium periodate was added to the cells briefly to cross-link the peptoid to the target receptor. This reaction was quenched with DTT and the cells were washed twice with 0.1% PBS/BSA. Fc block (BD Biosciences) was added to the cells for 15 min on ice in order to reduce non-specific binding to Fc receptors. The cells were stained with 1 μg anti CD4-PerCp Cy5.5 antibody and 0.02 μg streptavidin-APC antibody (BD Biosciences) for 15 minutes on ice. The staining was followed by 2 washes with 0.1% PBS/BSA and the cells were run on a FACS Calibur flow cytometer to assess peptoid binding. The data were analyzed using Flowjo software (Treestar) to determine the mean fluorescent intensity and are shown as histograms. The mean fluorescent intensities (MFI) were plotted using Graphpad Prism software to determine an estimated Kd value and are depicted as a line graph.

[4] = test system: CD4+ MBP Acl-11 specific murine TCR transgenic T cells; assay: CFSE proliferation assay; assay type: cell-based, mouse; conditions: 1-500 μM peptoid, MBP Acl-11 peptide 10 μg/ml and antigen presenting cells, 5 days
Method: (§2) Following CD4+ T cell isolation, Vα2.3Vβ8.2 TCR transgenic T cells, B cells, or MOG-35-55 TCR transgenic T cells were labeled with CFSE (molecular probes) according to manufacturer's instructions. Briefly, cells were resuspended at a concentration of 1×10^6 per ml in PBS and incubated with 0.5 μM CFSE at 37° C. for 10 min. The staining was quenched with addition of 5 volumes of culture media containing 10% FBS. The cells were centrifuged, washed, and resuspended in complete RPMI 1640 media. The cells were then plated at 1×10^6 per ml. and incubated with increasing concentrations of either AG12A peptoid or a control peptoid (1 μM, 10 μM, 20 μM, 40 μM, 60 μM, 80 μM, 100 μM, 200 μM, or 500 μM) for 30 min at 37° C. Antigen presenting cells were isolated from spleens of WT B10.PL mice and 10 μg/ml of MBP Acl-11, MOG 35-55, or LPS were then added to the culture to stimulate the cells. The cells were left in culture for 5 days, stained with an anti-CD4-PerCp antibody (BD Biosciences), and run on the FACS Calibur flow cytometer to assess cell division. The data were analyzed using Flowjo software (Treestar) proliferation platform to determine percentage of dividing cells. The percent division was graphed using Graphpad Prism software and depicted as a line graph.

[5] = test system: B cells from B10.PL wild-type mice; assay: CFSE proliferation assay; assay type: cell-based, mouse; conditions: 1-500 μM peptoid, stimulated with LPS
Method: as §2

[6] = test system: CD4+ T cells from MOG 35-55 TCR transgenic mice; assay: CFSE proliferation assay; assay type: cell-based, mouse; conditions: 1-500 μM peptoid, stimulated with MOG 35-55 peptide and antigen presenting cells
Method: as §2

## CC(C)CN(CC(=O)N(CCCCN)CC(=O)N(CC(=O)N(CC(=O)N(CCCCN)CC(=O)N(CC(=O)N(CCCCN)CC(=O)N(CCCCN)CC(N)=O)CC(C)C)[C@H](C)c1ccccc1)Cc1ccco1)C(=O)CNCCCCN [AG12A] (H-[Nlys][Nleu][Nlys][NFurfurylGly][Nrpe][Nlys][Nleu][Nlys][Nlys]-NH2)
[1]
  binding of T cells to peptoid displayed on beads: bound; also recorded: bind to AG12A peptoid beads
[2]
  binding of T cells to peptoid displayed on beads: did not; also recorded: do not bind
[3]
  Kd: ~40 µM
[4]
  inhibition of proliferation (percent division): inhibits proliferation
[5]
  inhibition of proliferation (percent division): nor did AG12A inhibit
[6]
  inhibition of proliferation (percent division): did not inhibit
